Results on 23 molecules are retold here after US20240360148A1 (SUVALENT THERAPEUTICS, INC., priority 2021, published 2024).

Test [1] deals with SAE1 (Homo sapiens (Human), UniProt Q9UBT2). The test can be described thus: SAE High Throughput Biochemical Assay (HTRF), 15 min preincubation. The conditions noted are these: SAE1 12.5 nM, ATP 100 μM. The gist of the method: (§1)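 SAE1 (12.5 nM) was preincubated with compound for 15 min at RT in HEPES pH 7.5, 0.1% BSA, 10 mM MgCl2. The reaction was then started with SUMO-GST and UBC9-His (40 nM each) plus 100 μM ATP for 45 min. After KF stop, HTRF (anti-GST-XL665/anti-His-EuK) was read at 2 h and overnight; some compounds were tested singly at 25 micromolar as percent of control.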
Chain of SAE1 (Homo sapiens (Human), UniProt Q9UBT2) (Q9UBE0 whole entry): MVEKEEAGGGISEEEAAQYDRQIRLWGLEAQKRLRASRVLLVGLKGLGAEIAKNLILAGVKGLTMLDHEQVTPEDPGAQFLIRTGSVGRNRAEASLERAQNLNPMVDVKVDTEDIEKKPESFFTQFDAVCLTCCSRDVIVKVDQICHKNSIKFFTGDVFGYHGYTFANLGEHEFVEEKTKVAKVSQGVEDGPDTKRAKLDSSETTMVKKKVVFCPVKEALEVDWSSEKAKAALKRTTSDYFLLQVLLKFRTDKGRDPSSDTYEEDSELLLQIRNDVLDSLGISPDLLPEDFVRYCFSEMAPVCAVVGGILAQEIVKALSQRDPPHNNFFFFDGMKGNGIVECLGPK
Chain of SAE1 (Homo sapiens (Human), UniProt Q9UBT2) (Q9UBT2 whole entry): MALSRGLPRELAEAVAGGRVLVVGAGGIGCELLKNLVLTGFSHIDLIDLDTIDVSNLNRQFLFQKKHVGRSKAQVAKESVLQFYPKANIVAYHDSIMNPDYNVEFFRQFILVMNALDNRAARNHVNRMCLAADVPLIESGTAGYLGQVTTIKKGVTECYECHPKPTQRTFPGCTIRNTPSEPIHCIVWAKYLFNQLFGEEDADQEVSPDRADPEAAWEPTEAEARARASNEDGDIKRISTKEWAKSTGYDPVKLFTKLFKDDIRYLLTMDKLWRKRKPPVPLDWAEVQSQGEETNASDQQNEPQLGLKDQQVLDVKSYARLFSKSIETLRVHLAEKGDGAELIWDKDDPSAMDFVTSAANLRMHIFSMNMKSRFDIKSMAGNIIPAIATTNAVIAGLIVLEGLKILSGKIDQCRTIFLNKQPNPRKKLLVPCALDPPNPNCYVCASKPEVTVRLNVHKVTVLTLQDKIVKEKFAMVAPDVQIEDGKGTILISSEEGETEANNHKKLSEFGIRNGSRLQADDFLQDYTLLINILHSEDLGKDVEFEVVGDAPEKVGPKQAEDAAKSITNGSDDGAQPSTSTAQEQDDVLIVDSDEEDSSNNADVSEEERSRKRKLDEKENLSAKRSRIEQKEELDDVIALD

Test [2] deals with sumoylation levels (SUMO 2/3 conjugates) in HCT-116 cells. The test can be described thus: HCT-116 4 Hour Cell Assay (Western, SUMO 2/3 conjugates). Format: cell-based. The note with it: Homo sapiens, HCT-116, 4 h, 4 h treatment, Anti-Sumo 2-3 immunoblot, read-out: HCT-116 Western 4 h IC50 (μM) Ave. The gist of the method: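 Cells treated 4 h with 11 three-fold dilutions from 25 μM; lysed in RIPA with NEM and Benzonase. Non-reducing SDS-PAGE immunoblot with anti-SUMO 2/3 mAb, IRDye fluorescent detection; conjugate signal normalized to total protein stain, IC50 from quantified bands.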

Test [3] concerns the target SAE1 (Homo sapiens (Human), UniProt Q9UBE0+Q9UBT2). The test can be described thus: SAE High Throughput Biochemical Assay (HTRF), 15 min preincubation. The note with it: read-out: 15 min preincubation HTRF IC50 (μM) Ave, SAE1 12.5 nM, ATP 100 μM. The gist of the method: as §1

Chain of SAE1 (Homo sapiens (Human), UniProt Q9UBE0+Q9UBT2) (Q9UBE0 whole entry): as the sequence (Q9UBE0 whole entry) above
Chain of SAE1 (Homo sapiens (Human), UniProt Q9UBE0+Q9UBT2) (Q9UBT2 whole entry): as the sequence (Q9UBT2 whole entry) above

For `CCn1cc(-c2c(F)cccc2[C@@H]2CN(C(=O)/C=C\CN(C)C)Cc3sc(C#N)c(C)c32)c(C(F)(F)F)n1` [Compound 223], the IC50 is 52 nM against SAE1 [1] and 0.0473 µM in test [2].

Turning to `CCn1cc(-c2c(F)cccc2[C@@H]2CN(C(=O)/C=C\CNC)Cc3sc(C#N)c(C)c32)c(C(F)(F)F)n1` [Compound 225], the IC50 against SAE1 [1] worked out at 34 nM; in test [2], 0.298 µM.

Regarding `CCn1cc(-c2ccccc2[C@@H]2CN(C(=O)/C=C/C(C)N(C)C)Cc3sc(C#N)cc32)c(C(F)(F)F)n1` (some centres unmarked) [Compound 235], the IC50 on SAE1 [1] was 4150 nM; in test [2], 0.285 µM.

For `CCn1cc(-c2ccccc2[C@@H]2CN(C(=O)/C=C/COC)Cc3sc(C#N)cc32)c(C(F)(F)F)n1` [Example 7, (S, E)-4-(2-(1-Ethyl-3-(trifluoromethyl)-1 H-pyrazol-4-yl)phenyl)-6-(4-methoxybut-2-enoyl)-4,5,6,7-tetrahydrothieno[2,3-c]pyridine-2-carbonitrile], the IC50 was determined as 9310 nM against SAE1 [1] and 1.95 µM in test [2].

Molecule `CCOC/C=C/C(=O)N1Cc2sc(C#N)cc2[C@H](c2ccccc2-c2cn(CC)nc2C(F)(F)F)C1` [Example 8, (S, E)-6-(4-Ethoxybut-2-enoyl)-4-(2-(1-ethyl-3-(trifluoromethyl)-1 H-pyrazol-4-yl)phenyl)-4,5,6,7 tetrahydrothieno[2,3-c]pyridine-2-carbonitrile] had an IC50 against SAE1 [1] of 10800 nM.

On SAE1 [1], `CCn1cc(-c2ccccc2[C@@H]2CN(C(=O)/C=C/CN(C)OC)Cc3sc(C#N)cc32)c(C(F)(F)F)n1` [Example 11, (S, E)-4-(2-(1-Ethyl-3-(trifluoromethyl)-1 H-pyrazol-4-yl)phenyl)-6-(4-(methoxy(methyl)amino)but-2-enoyl)-4,5,6,7-tetrahydrothieno[2,3-c]pyridine-2-carbonitrile] came in with an IC50 of more than 25000 nM.

At SAE1 [1], `CCn1cc(-c2ccccc2[C@@H]2CN(C(=O)/C=C/[C@H](C)N(C)C)Cc3sc(C#N)cc32)c(C(F)(F)F)n1` [Example 13, (S)-6-((S, E)-4-(dimethylamino)pent-2-enoyl)-4-(2-(1-ethyl-3-(trifluoromethyl)-1 H-pyrazol-4-yl)phenyl)-4,5,6,7-tetrahydrothieno[2,3-c]pyridine-2-carbonitrile] yielded an IC50 of 6220 nM.

For `CCn1cc(-c2ccccc2[C@@H]2CN(C(=O)/C=C/C(F)(F)F)Cc3sc(C#N)cc32)c(C(F)(F)F)n1` [Example 22, (S, E)-4-(2-(1-ethyl-3-(trifluoromethyl)-1 H-pyrazol-4-yl)phenyl)-6-(4,4,4-trifluorobut-2-enoyl)-4,5,6,7-tetrahydrothieno[2,3-c]pyridine-2-carbonitrile], the IC50 came to 390 nM against SAE1 [1] and 0.214 µM in test [2].

`CCC(/C=C/C(=O)N1Cc2sc(C#N)cc2[C@H](c2ccccc2-c2cn(CC)nc2C(F)(F)F)C1)N(C)C` (stereo partly drawn) [Example 24, (4S)-6-((E)-4-(dimethylamino)hex-2-enoyl)-4-(2-(1-ethyl-3-(trifluoromethyl)-1 H-pyrazol-4-yl)phenyl)-4,5,6,7-tetrahydrothieno[2,3-c]pyridine-2-carbonitrile] returned an IC50 against SAE1 [1] of more than 25000 nM.

`CCC(N)/C=C/C(=O)N1Cc2sc(C#N)cc2[C@H](c2ccccc2-c2cn(CC)nc2C(F)(F)F)C1` (stereo partly drawn) [Example 39, (4S)-6-((E)-4-aminohex-2-enoyl)-4-(2-(1-ethyl-3-(trifluoromethyl)-1 H-pyrazol-4-yl)phenyl)-4,5,6,7-tetrahydrothieno[2,3-c]pyridine-2-carbonitrile]: the IC50 against SAE1 [1] was 8560 nM.

`CCn1cc(-c2ccccc2[C@@H]2CN(C(=O)/C=C/C(N)C3CC3)Cc3sc(C#N)cc32)c(C(F)(F)F)n1` (stereo partly drawn) [Example 42, (4S)-6-((E)-4-amino-4-cyclopropylbut-2-enoyl)-4-(2-(1-ethyl-3-(trifluoromethyl)-1 H-pyrazol-4-yl)phenyl)-4,5,6,7-tetrahydrothieno[2,3-c]pyridine-2-carbonitrile]: it took 8390 nM to reach half-maximal inhibition against SAE1 [1] (IC50).

As to `CCn1cc(-c2ccccc2[C@@H]2CN(C(=O)/C=C/C(N)Cc3ccccc3)Cc3sc(C#N)cc32)c(C(F)(F)F)n1` (stereo partly drawn) [Example 44, (4S)-6-((E)-4-amino-5-phenylpent-2-enoyl)-4-(2-(1-ethyl-3-(trifluoromethyl)-1 H-pyrazol-4-yl)phenyl)-4,5,6,7-tetrahydrothieno[2,3-c]pyridine-2-carbonitrile], the IC50 at SAE1 [1] was found to be 9860 nM.

In turn, `CCn1cc(-c2ccccc2[C@@H]2CN(C(=O)/C=C/CCNC)Cc3sc(C#N)cc32)c(C(F)(F)F)n1` [Example 45, (S, E)-4-(2-(1-ethyl-3-(trifluoromethyl)-1 H-pyrazol-4-yl)phenyl)-6-(5-(methylamino)pent-2-enoyl)-4,5,6,7-tetrahydrothieno[2,3-c]pyridine-2-carbonitrile] gave an IC50 at SAE1 [1] of 23200 nM.

In the case of `CCn1cc(-c2ccccc2[C@@H]2CN(C(=O)/C=C/[C@@H](C)N)Cc3sc(C#N)cc32)c(C(F)(F)F)n1` [Example 47, (S)-6-((R, E)-4-aminopent-2-enoyl)-4-(2-(1-ethyl-3-(trifluoromethyl)-1 H-pyrazol-4-yl)phenyl)-4,5,6,7-tetrahydrothieno[2,3-c]pyridine-2-carbonitrile], the IC50 against SAE1 [1] was found to be 3370 nM; in test [2], 2.72 µM.

As to `[2H]C([2H])([2H])N(C/C=C/C(=O)N1Cc2sc(C#N)cc2[C@H](c2cccc(F)c2-c2cn(CC)nc2C(F)(F)F)C1)C([2H])([2H])[2H]` [Example 48, (S,E)-6-(4-(bis(methyl-d3)amino)but-2-enoyl)-4-(2-(1-ethyl-3-(trifluoromethyl)-1 H-pyrazol-4-yl)-3-fluorophenyl)-4,5,6,7-tetrahydrothieno[2,3-c]pyridine-2-carbonitrile], the IC50 against SAE1 [1] worked out at 1120 nM; in test [2], 0.197 µM.

`CCn1cc(-c2ccccc2[C@@H]2CN(C(=O)/C=C/[C@H]3CCCN3C)Cc3sc(C#N)cc32)c(C(F)(F)F)n1` [Example 90, (S)-4-(2-(1-Ethyl-3-(trifluoromethyl)-1 H-pyrazol-4-yl)phenyl)-6-((E)-3-((R)-1-methylpyrrolidin-2-yl)acryloyl)-4,5,6,7-tetrahydrothieno[2,3-c]pyridine-2-carbonitrile]: the IC50 against SAE1 [1] was 5680 nM; in test [2], 3.05 µM.

For the molecule `CCn1cc(-c2ccccc2[C@@H]2CN(C(=O)/C=C/CNC3(C)CNC3)Cc3sc(C#N)cc32)c(C(F)(F)F)n1` [Example 98, (S,E)-4-(2-(1-Ethyl-3-(trifluoromethyl)-1H pyrazol-4-yl)phenyl)-6-(4-((3-methylazetidin-3-yl)amino)but-2-enoyl)-4,5,6,7-tetrahydrothieno[2,3-c]pyridine-2-carbonitrile], the IC50 at SAE1 [1] is more than 25000 nM.

On to `CCn1cc(-c2ccccc2[C@@H]2CN(C(=O)/C=C/C3CNC3)Cc3sc(C#N)cc32)c(C(F)(F)F)n1` [Example 108, (S, E)-6-(3-(Azetidin-3-yl)acryloyl)-4-(2-(1-ethyl-3-(trifluoromethyl)-1 H-pyrazol-4-yl)phenyl)-4,5,6,7-tetrahydrothieno[2,3-c]pyridine-2-carbonitrile], for which the IC50 against SAE1 [1] was determined as 11000 nM.

Molecule `CCn1cc(-c2cc(C(=O)NC)ccc2C2CN(C(=O)/C=C/CN(C)C)Cc3sc(C#N)cc32)c(C(F)(F)F)n1` (centres unmarked) [Example 208, (E)-4-(2-Cyano-6-(4-(dimethylamino)but-2-enoyl)-4,5,6,7-tetrahydrothieno[2,3-c]pyridin-4-yl)-3-(1-ethyl-3-(trifluoromethyl)-1 H pyrazol-4-yl)-N-methylbenzamide] registered an IC50 at SAE1 [1] of more than 25000 nM.

`CN(C)C/C=C/C(=O)N1Cc2sc(C#N)cc2[C@H](c2cccc(F)c2-c2cn(C)nc2C(F)(F)F)C1` [Example 250, (S)-6-((E)-4-(dimethylamino)but-2-enoyl)-4-((S)-3-fluoro-2-(1-methyl-3-(trifluoromethyl)-1 H-pyrazol-4-yl)phenyl)-4,5,6,7-tetrahydrothieno[2,3-c]pyridine-2-carbonitrile]: the half-maximal inhibitory concentration (IC50) at SAE1 [3] was 0.76 µM; in test [2] it was 0.263 µM.

In the case of `Cc1c(C#N)sc2c1[C@H](c1cccc(F)c1-c1cn(C)nc1C(F)(F)F)CN(C(=O)/C=C/[C@@H]1CCCN1)C2` [Example 251, (S)-4-(3-fluoro-2-(1-methyl-3-(trifluoromethyl)-1 H-pyrazol-4-yl)phenyl)-3-methyl-6-((E)-3-((S)-pyrrolidin-2-yl)acryloyl)-4,5,6,7-tetrahydrothieno[2,3-c]pyridine-2-carbonitrile], the IC50 at SAE1 [3] was 0.11 µM; in test [2] it was 0.0822 µM.

Take `CC[C@H]1CNC(/C=C/C(=O)N2Cc3sc(C#N)cc3[C@H](c3cccc(F)c3-c3cn(CC)nc3C(F)(F)F)C2)C1` (stereo partly drawn) [Example 252, (S)-4-((S)-2-(1-ethyl-3-(trifluoromethyl)-1 H-pyrazol-4-yl)-3-fluorophenyl)-6-((E)-3-((2S,4R)-4-ethylpyrrolidin-2-yl)acryloyl)-4,5,6,7-tetrahydrothieno[2,3-c]pyridine-2-carbonitrile]: the values for the IC50 (at SAE1 [3]; in test [2]) were 0.39 µM and 0.288 µM, respectively.

`CCn1cc(-c2c(F)cccc2[C@@H]2CN(C(=O)/C=C/C3CC(F)(F)CN3)Cc3sc(C#N)cc32)c(C(F)(F)F)n1` (stereo partly drawn) [Example 253, (S)-6-((E)-3-((S)-4,4-difluoropyrrolidin-2-yl)acryloyl)-4-((S)-2-(1-ethyl-3-(trifluoromethyl)-1 H-pyrazol-4-yl)-3-fluorophenyl)-4,5,6,7-tetrahydrothieno[2,3-c]pyridine-2-carbonitrile 2,2,2-trifluoroacetate]: the IC50 at SAE1 [3] was found to be 2.92 µM; in test [2], 0.919 µM.
